Test results from US20240316196A1, “METHODS AND COMPOSITIONS FOR DIFFERENTIATION OF PLURIPOTENT STEM CELLS AND DERIVED NATURAL KILLER CELLS” (NUWACELL BIOTECHNOLOGIES CO., LTD., priority 2022, published 2024).

Columns and labels:
[1] = test system: iNK cells; assay: Stage 3 expansion and maturation of immature iNK cells co-cultured with feeder cells; type: cell-based, human; details: IL-18 (10-50 ng/mL) with IL-2 (100 IU/mL) in Stage 3 vs IL-2 only, Day 14 of co-culture (FIG. 13B)
Method: (§1) hiPSCs were prepared as described in CN108373998B. On Day −1, Embryoid body (EB) formation (Stage 1-1) was carried out by placing individualized hiPSCs in E8 medium containing 10 μM Blebbistatin in T25 flasks on a bellydancer and culture overnight. On Day 0, lateral mesoderm differentiation (Stage 1-2) was initiated by changing the medium to a Stage 1-2 differentiation medium comprising IF-4 basal medium and supplemented with BMP4 (25 ng/mL), VEGF (15 ng/mL), bFGF (0.5 ng/mL) and CHIR99021 (4 μM) for 2 days. On Day 2, lateral mesoderm differentiation (Stage 1-3) continued for 1 day in a Stage 1-3 differentiation medium comprising IF-4 basal medium and supplemented with BMP4 (25 ng/mL), VEGF (15 ng/mL) and bFGF (0.5 ng/mL) and CHIR99021 (1 μM). On Day 3, HE specification (Stage 1-4) was initiated by adding a Stage 1-4 differentiation medium comprising IF-4 basal medium and supplemented with VEGF (15 ng/mL), bFGF (5 ng/mL), XAV939 (5 μM) for 1 day. […] On Day 14 of co-culture, iNK cells were collected and stained with CD56-PE antibody (BD, #555516), and the percentage of CD56+ cells was analyzed by flow cytometry.
hiPSCs were prepared as described in CN108373998B. […] D-1 and DO cells were analyzed by Microscopy. […] At the end of Stage 1-4, cells were analyzed by Microscopy and FACS. […] At the end of Stage 1-5, cells were analyzed by Microscopy and FACS. […]

[2] = test system: K562 cells; assay: Cytotoxicity of Stage 3 iNK cells towards K562 cells (CFSE/7AAD assay); type: cell-based; details: added to Stage 3 medium (IL-10 20 ng/mL, IL-18 50 ng/mL); 4 hr co-culture, E:T 3:1 (FIG. 13A)
Method: as §1, with “ng/mL), VEGF (50 ng/mL) and” for “ng/mL), VEGF (15 ng/mL) and”, “On Day 11 of co-culture,” for “On Day 14 of co-culture,”, “(BD, #555516), the percentage” for “(BD, #555516), and the percentage”, “flow cytometry. The cytotoxicity of Stage 3 iNK cells towards K562 cells was detected by CFSE/7AAD assay after 4 hr co-culture at E:T of 3:1.” for “flow cytometry.”

Substance: IL-18: interleukin added to Stage 3 expansion and maturation medium
- expansion fold of iNK cells [1]: improve the expansion fold
- cytotoxicity of iNK cells towards K562 cells [2]: significantly improve
